Measured values as given in US4588692A, “Antibiotic compounds, process for the preparation and pharmaceutical compositions thereof, methods of treatment therewith and Staphylococcus bacteria” (priority 1979, dated 1986).

Tested on: S. epidermidis NCIB 11536
Test: Antibiotic disc sensitivities of the producer strain
Format: cell-based
Conditions: for Sensitive to: Amount of antibiotic/disc: strain sensitive at this disc content

Compound	Novobiocin sensitivity (5 μg disc)	Sensitive to: Amount of antibiotic/disc
CO[C@@H]1[C@@H](OC(N)=O)[C@@H](O)[C@H](Oc2ccc3c(O)c(NC(=O)c4ccc(O)c(CC=C(C)C)c4)c(=O)oc3c2C)OC1(C)C [novobiocin]	sensitive	
gentamycin		10 µg
CC1(C)S[C@@H]2[C@H](NC(=O)Cc3ccccc3)C(=O)N2[C@H]1C(=O)O [penicillin G]		1 unit
